The results in this text go back to PMC7000199, “Indirubin derivatives are potent and selective anti-Trypanosoma cruzi agents” (Virulence, 2018).

As usually defined, the EC50 is the concentration giving half of the maximal effect. What is called CC50 is the concentration that lowers cell viability or growth by half. A higher CC50 goes with lower toxicity to the cells.

In data set [1] the test system is T. cruzi trypomastigotes (Y strain). The data set can be described thus: Cytotoxicity for trypomastigotes (viable parasite count, Neubauer chamber). In kind it is cell-based, Trypanosoma cruzi. The following applies: for activity at the screening threshold (in words): threshold 10 μΜ. The source says: The trypanocidal activity of the 69 indirubins was initially evaluated against trypomastigotes (Y strain T. cruzi) through the determination of EC50 values. First, the collection of 69 indirubins (Table S1) was screened against the trypomastigote form of T. cruzi parasites at 10 μΜ and 1 μΜ.
The T. cruzi Y strain (DTU II) was used in this study. […] For in vivo analysis, bloodstream trypomastigotes used were obtained from BALB/c mice previously infected intraperitoneally with 10,000 Y trypomastigotes, and then bled after 8–12 days when they reached the peak of parasitaemia.
Trypomastigotes (4x10^5 cells/well) were seeded into 96-well plates and the indirubins were added at eight concentrations ranging from 0.08 to 10 µM, in triplicate. Plates were incubated for 24 h at 37 °C and 5% of CO2. Aliquots of each well were collected and the number of viable parasites, based on parasite integrity and motility, was assessed in a Neubauer chamber and compared to untreated cultures. Three independent experiments were performed.
(§1) The selectivity index (SI) was defined as the ratio of CC50 by EC50 (trypomastigotes). The one-way ANOVA followed by Bonferroni’s multiple comparison test was used to determine the statistical significance of the group comparisons in the in vitro infection and in vivo studies. Results were considered statistically significant when P < 0.05. All analyzes were performed using Graph Pad Prism version 5.01

For data set [2], the system named is T. cruzi intracellular amastigotes. The data set can be described thus: In vitro infection assay (infected peritoneal macrophages). It is filed as cell-based, Trypanosoma cruzi. To be noted: amastigotes in infected macrophages treated for 6 h, mean ± SD. As to the method:
Peritoneal exudate macrophages were obtained by washing, with cold PBS, the peritoneal cavity of BALB/c mice 4–5 days after injection of 3% thioglycolate (Sigma-Aldrich) in saline (1.5 mL per mice). Then, cells were plated at a cell density of 2 × 10^5 cells/well in 24-well plates with sterile coverslips on the bottom in RPMI supplemented with 10% FBS and incubated for 24 h at 37° C and 5% CO2. Cells were then infected with trypomastigotes at a ratio of 10 parasites per macrophage for 2 h. Free trypomastigotes were removed by successive washes using saline solution. Cultures were incubated in complete medium alone or with the compounds under investigation in different concentrations for 6 h. The medium was replaced with fresh medium and the plate was incubated for 3 days. Cells were fixed in absolute alcohol and the percentage of infected macrophages and the mean number of amastigotes/100 macrophages was determined by manual counting after hematoxylin and eosin staining in an optical microscope (Olympus). The percentage of infected macrophages and the relative number of amastigotes per macrophage was determined by counting 100 cells per slide.
as §1

A further data set relates to T. cruzi trypomastigotes. The data set can be described thus: Ultrastructural studies (TEM and SEM) of treated trypomastigotes. In kind it is cell-based, Trypanosoma cruzi. To be noted: 24 h; for morphological alterations by scanning electron microscopy: EC50 and 2 x EC50 concentration; for ultrastructural alterations by transmission electron microscopy: EC50 concentration. As to the method: Parasites were then fixed with 2% formaldehyde and 2.5% glutaraldehyde in sodium cacodylate buffer (0.1 M, pH 7.2) for 1 h at room temperature. After fixation, parasites were washed 3 times with sodium cacodylate buffer (0.1 M, pH 7.2), and post-fixed with a 1.0 % solution of osmium tetroxide containing 0.8% potassium ferrocyanide (Sigma-Aldrich; Catalog number: P3289) for 1 h. Cells were subsequently dehydrated in increasing concentrations of acetone (30, 50, 70, 90 and 100%) for 10 min at each step and embedded in polybed resin (PolyScience; Catalog number: 00552–500). Ultrathin sections on copper grids were contrasted with uranyl acetate and lead citrate and observed under a ZEISS 109 transmission electron microscope. For scanning electron microscopy, trypomastigotes treated and fixed in the same conditions were washed in 0.1 M cacodylate buffer, and allowed to adhere in coverslips pre-coated with poly-L-lysine (Sigma-Aldrich; Catalog number: P4707). Cells were then post-fixed with a solution of osmium tetroxide containing 0.8% of potassium ferrocyanide for 30 min and dehydrated in crescent concentrations of ethanol (30, 50, 70, 90 and 100%). The samples were dried until the critical point, metallized with gold and analyzed in a JEOL JSM-6390LV scanning electron microscope. Two independent experiments were performed.

The subject of data set [3] is Y Trypanosoma cruzi strain. The data set can be described thus: Infection in mice (acute Chagas disease model). It is filed as in vivo, BALB/c mice. To be noted: for Mortality: dead/total, monitored for 30 days after treatment; for % Blood parasitemia reduction in mice at 12 dpi: daily for 5 days from day 5 of infection, versus vehicle group. As to the method: Female BALB/c mice (18–22 g) were infected with bloodstream trypomastigotes by intraperitoneal inoculation of 10^4 parasites in 100 µL of saline solution and then mice were randomly divided in groups (six animals per group). Before starting the treatment on the fifth day post infection, the infection was confirmed in all animals where on average 0.4 × 10^6 parasites per ml of blood were found. Thus, after day 5 of infection, treatment with 20 mg/kg weight of indirubins 10, 11, 17 and 32 were given orally for five consecutive days. For the control group, benznidazole was given orally at dose of 100 mg/kg weight. Saline containing 20% DMSO was used as a vehicle and administrated on untreated and infected group. Infection was monitored daily by counting the number of motile parasites in 5 µL of fresh blood sample drawn from the lateral tail veins, as recommended by standard protocol. Survival of mice was monitored for 30 days after treatment.

The conditions of data set [4]: mouse, in vivo, 20 mg/kg.
Protocol: (§3) Thus, the highest dose was selected (20 mg/kg) and administrated, as described in material and methods section.
(§4) The analysis was performed in 6 mice per group.
Data set [5] in a line: In vivo toxicity: mortality, behaviour, serum and urine renal and hepatic markers. To be noted: mice, 10 or 20 mg/Kg for 5 consecutive days, up to 3 months post treatment.
Protocol: as §3, §4
For data set [6], the system named is murine macrophages J774.1. The data set can be described thus: Cytotoxicity to mammalian cells (Alamar Blue). In kind it is cell-based, mouse. As to the method:
(§2) Mouse macrophages (J774.1 cell line) were seeded into 96-well plates at a cell number 1 × 10^4 cells/well in DMEM medium supplemented with 10 % of FBS and incubated for 24 h at 37°C and 5% CO2. Samples were then added at eight concentrations (ranging from 0.078 to 10 µM) in triplicate, and incubated for 72 h, followed by the addition of 20 µL/well of Alamar Blue (Invitrogen; Catalog number: DAL1025). Colorimetric readings were performed 24 h later at 570 and 600 nm. CC50 values were calculated using data-points gathered from three independent experiments. Benznidazole was tested in concentrations ranging from 0.78 to 100 µM.
as §1
On the technique in general: Resazurin is reduced to fluorescent resorufin, in cell work by metabolically active cells.

Data set [7] can be described thus: Cytotoxicity to mammalian cells (Alamar Blue). In kind it is cell-based, mouse. To be noted: mouse, J774.1 macrophage cells; J774.1 cell viability, 72 h post-treatment. As to the method: as §2, §1
Setting [8] is: trypomastigotes, 24 h post-treatment, mean ± SD of three experiments, read-out: EC50 Try.
Where [9] appears, read: 20 mg/Kg orally, daily for 5 days.
Setting [10] is: 100 mg/Kg orally, daily for 5 days.
Where [11] appears, read: Table S1, 69 indirubin analogues, read-out: EC50 in T.cruzi trypomastigotes.

Like-named read-outs stand apart in the source and are kept apart here. Marks after values point to notes of the source that are not given here.

On to 3ʹpiperazine-6-BIO [Compound 11], for which, in data set [1] (setting [8]), the EC50 is 0.25 µM. Also, the concentration for a half-maximal effect (EC50) in data set [2] is 0.22 µM. In the data set with T. cruzi trypomastigotes, the “morphological alterations by scanning electron microscopy” value (from here on “morphological alterations”) is recorded as “extensive loss of plasma membrane integrity” and the “ultrastructural alterations by transmission electron microscopy” value (from here on “ultrastructural alterations”) is “appearance of myelin figures”. For the same compound, in the data set with T. cruzi trypomastigotes (listed as compound 11), the “morphological alterations” value was “alterations in cell shape and loss of plasma membrane integrity”; the “ultrastructural alterations” value is given as “DNA degradation with pyknotic nuclei”. For the same compound, in data set [3] (setting [9]), the “effect on mortality (in words)” value is given as “protective effect” and the Mortality was 1/6. In data set [4], the “Blood Serum Alanine Aminotransferase (ALT)” value worked out at 29±2 U/I, the “Blood Serum Aspartate Aminotransferase (AST)” value was 135.5±10.5 U/I, the “Blood Serum C-Reactive Protein (CRP)” value was less than 0.02 mg/dL and the “Blood Serum Creatinine” value came out at 0.385 ± 0.015 mg/dL. Moreover, in data set [4], the “Urine (24h) Creatinine” value was 63±8, the “Urine (24h) Microalbumin (Urine Albumin)” value was found to be 9 ± 1 mg/L and the “Urine (24h) Urine albumin to creatinine ratio (ACR)” value amounted to 0.142. For the same compound, in data set [5], the “signs of toxicity or mortality (in words)” value is reported as “no signs of toxicity”.
For 3ʹpyrrolidine-6BIO [Compound 17], in data set [1] (setting [8]), the EC50 is 0.44 µM. For the same compound, the “cytotoxicity against murine macrophages J774.1 (in words)” value in data set [6] was “lower cytotoxicity”. The same compound had a CC50 in data set [6] (J774.1 cell viability, 72 h post-treatment) of 10 µM. Further, the EC50 in data set [2] worked out at 0.9 µM. Further, in the data set with T. cruzi trypomastigotes, the “morphological alterations” value is reported as “extensive loss of plasma membrane integrity” and the “ultrastructural alterations” value was “appearance of myelin figures”. Moreover, in the data set on T. cruzi trypomastigotes (listed as compound 17), the “ultrastructural alterations” value was “DNA degradation with pyknotic nuclei”. Besides, in data set [3] (setting [9]), the “effect on mortality (in words)” value is “protective effect” and the Mortality was 1/6*.
`O=C(Cn1ccnc1[N+](=O)[O-])NCc1ccccc1` [Benznidazole, reference compound]: the concentration for a half-maximal effect (EC50) in data set [1] (Trypanosoma cruzi, 24 h, trypomastigotes, 24 h post-treatment, mean ± SD of three experiments, read-out: EC50 Try.) amounted to 11.3 µM; in data set [2] (Trypanosoma cruzi, Macrophage) it was 13.4 µM. The CC50 at 72 h in data set [7] was greater than 100 µM. The compound also came in with a survival rate in data set [3] (setting [10]) of 100%. Besides, the “% Blood parasitemia reduction in mice at 12 dpi” value in data set [3] (100 mg/Kg orally) is given as > 99* %; in data set [3] (100 mg/Kg orally, listed as benznidazole) it was greater than 99%. Moreover, the Mortality in data set [3] (setting [10]) was 0/6*.
As for `Cc1cc2c(cc1Br)NC(=O)C2=C1Nc2ccccc2C1=NO` [Compound 5-Me-6-BIO, 6-br-5methylindirubin-3ʹoxime], in data set [1] (setting [11]), the EC50 was greater than 10 µM. The “activity at the screening threshold (in words)” value in data set [1] (trypomastigotes) is “did not exhibit any activity”.
Regarding `O=C1Nc2cc(Br)ccc2C1=C1Nc2ccccc2C1=NO` [Compound 6BIO, 3'oxime-6-bromoindirubin], the concentration giving a half-maximal response (EC50) in data set [1] (setting [11]) was greater than 10 µM. In addition, the “activity at the screening threshold (in words)” value in data set [1] (trypomastigotes) is given as “did not exhibit any activity”.
On to `O=C1Nc2c(Br)cccc2C1=C1Nc2ccccc2C1=O` [Compound 20], for which, in data set [1] (setting [11]), the concentration for a half-maximal effect (EC50) was greater than 10 µM.
On the same count and under the same terms, as for `O=C1Nc2c(Br)cccc2C1=C1Nc2ccccc2C1=NO` [Compound 21], the figure is greater than 10 µM; as for `O=C1Nc2c(cccc2C(F)(F)F)C1=C1Nc2ccccc2C1=NO` [Compound 27], greater than 10 µM; as for `O=C1Nc2c(cccc2C(F)(F)F)C1=C1Nc2ccccc2C1=O` [Compound 36], greater than 10 µM.
On the same count and under the same terms, as for `O=C1Nc2cc(N3CCNCC3)c([N+](=O)[O-])cc2C1=C1Nc2ccccc2C1=NO` [Compound 45], the figure is greater than 10 µM; as for `CC(=O)O/N=C1/C(=C2/C(=O)Nc3cc(Br)ccc32)Nc2ccccc21` [Compound 50], greater than 10 µM; as for `O=C1Nc2cc(Br)c([N+](=O)[O-])cc2C1=C1Nc2ccccc2C1=NO` [Compound 51], greater than 10 µM.
Same read-out and setting: as for `Nc1cc2c(cc1Br)NC(=O)C2=C1Nc2ccccc2C1=NO` [Compound 52], the figure is greater than 10 µM; as for `Nc1cc2c(cc1Br)NC(=O)C2=C1Nc2ccccc2C1=O` [Compound 53], greater than 10 µM.
As to `O=C1Nc2cc(Br)c([N+](=O)[O-])cc2C1=C1Nc2ccccc2C1=O` [Compound 54], the EC50 in data set [1] (setting [11]) was greater than 10 µM.
On the same count and under the same terms, as for `O=C1Nc2cc(Br)ccc2C1=C1Nc2ccccc2C1=O` [Compound 55], the figure is greater than 10 µM; as for `CCOP(=O)(OCC)ON=C1C(=C2C(=O)Nc3cc(Br)ccc32)Nc2ccccc21` [Compound 56], greater than 10 µM.
On the same count and under the same terms, the result for `Cc1cc2c(cc1Br)NC(=O)C2=C1Nc2ccccc2C1=O` [Compound 57] reads greater than 10 µM; that for `CN1C(=O)C(=C2Nc3ccccc3C2=NO)c2ccc(Br)cc21` [Compound 58], greater than 10 µM; that for `CC(=O)ON=C1C(=C2C(=O)N(C)c3cc(Br)ccc32)Nc2ccccc21` [Compound 59], greater than 10 µM.
With `O=C1Nc2ccc(Br)cc2C1=C1Nc2ccccc2C1=O` [Compound 60], the concentration for a half-maximal effect (EC50) in data set [1] (setting [11]) was greater than 10 µM.
Same read-out and setting: the result for `O=C1Nc2ccc(Br)cc2C1=C1Nc2ccccc2C1=NO` [Compound 61] reads greater than 10 µM; that for `Nc1ccc2c(c1)C(=C1Nc3ccccc3C1=NO)C(=O)N2` [Compound 62], greater than 10 µM.
Take `O=C1Nc2cc(F)ccc2C1=C1Nc2ccccc2C1=NO` [Compound 63]: in data set [1] (setting [11]), the concentration giving a half-maximal response (EC50) is greater than 10 µM.
The same measure, in the same setting: the result for `O=C1Nc2cc(Cl)ccc2C1=C1Nc2ccccc2C1=NO` [Compound 64] reads greater than 10 µM.
On the same count and under the same terms, as for `O=C1Nc2cc(I)ccc2C1=C1Nc2ccccc2C1=NO` [Compound 65], the figure is greater than 10 µM; as for `O=C1Nc2ccccc2/C1=C1/Nc2ccccc2C1=O` [Compound 66], greater than 10 µM.
Same read-out and setting: the result for `CON=C1C(=C2C(=O)Nc3ccccc32)Nc2ccccc21` [Compound 67] reads greater than 10 µM.
